From US7566718B2, “Amine-linked pyridyl and phenyl substituted piperazine-piperidines with CXCR3 antagonist activity” (Schering Corporation, priority 2005, dated 2009)

Target: T1, human CXCR3 (N-delta 4) (Homo sapiens, UniProt P49682)
T1 construct: CD8 leader (N); Flag tag; expressed in transfected cells; membrane preparation
T1 sequence (P49682 5-368 limits assumed): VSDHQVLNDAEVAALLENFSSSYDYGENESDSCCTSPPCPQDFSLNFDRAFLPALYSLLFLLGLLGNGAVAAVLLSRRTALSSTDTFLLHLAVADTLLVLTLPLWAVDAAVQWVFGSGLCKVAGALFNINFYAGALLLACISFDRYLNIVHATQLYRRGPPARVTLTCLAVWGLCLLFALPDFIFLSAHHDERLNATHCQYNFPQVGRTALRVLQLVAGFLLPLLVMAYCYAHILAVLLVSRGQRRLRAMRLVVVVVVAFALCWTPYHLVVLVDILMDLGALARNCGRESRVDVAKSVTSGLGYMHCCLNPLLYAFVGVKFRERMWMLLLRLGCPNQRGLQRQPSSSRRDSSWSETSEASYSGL
Assay: Human CXCR3 (N-delta 4) scintillation proximity assay (SPA), [125I] IP-10 binding to Ba/F3-hCXCR3 membranes
Conditions: IC50 rating; [125I] IP-10 displacement, human CXCR3; read-out: IC50
From the text: The inventive compounds can readily be evaluated to determine activity at the CXCR3 receptors by known methods, such as, for example, development of a human CXCR3 (N-delta 4) Binding Assay.
The DNA encoding human CXCR3 was cloned by PCR using human genomic DNA (Promega, Madison, Wis.) as a template. The PCR primers were designed based on the published sequence of human orphan receptor GPR9 (1) with incorporated restriction sites, a Kozak consensus sequence, CD8 leader and Flag tag. The PCR product was subcloned into the mammalian expression vector pME18Sneo, a derivative of the SR-alpha expression vector (designated as pME18Sneo-hCXCR3 (N-delta 4).
IL-3-dependent mouse pro-B cells Ba/F3 were transfected by electroporation in 0.4 ml Dulbecco's PBS containing 4×10^6 cells with 20 μg of pME18Sneo-hCXCR3 (N-delta 4) plasmid DNA. Cells were pulsed at 400 Volts, 100 OHMs, 960 μFd. The transfected cells were under selection with 1 mg/ml G418 (Life Technologies, Gaithersburg, Md.). G418-resistant Ba/F3 clones were screened for CXCR3 expression by specific binding of [^125I] IP-10 (NEN Life Science Products, Boston, Mass.).
Ba/F3 cells expressing human CXCR3 (N-delta 4) were pelleted and resuspended in the lysis buffer containing 10 mM HEPES, pH 7.5 and Complete® protease inhibitors (1 tablet per 100 ml) (Boehringer Mannheim, Indianapolis, Ind.) at a cell density of 20×10^6 cells per ml. After 5 minute incubation on ice, cells were transferred to 4639 cell disruption bomb (Parr Instrument, Moline, Ill.) and applied with 1,500 psi of nitrogen for 30 minutes on ice. Large cellular debris was removed by centrifugation at 1,000×g. Cell membrane in the supernatant was sedimented at 100,000×g. The membrane was resuspended in the lysis buffer supplemented with 10% sucrose and stored at −80° C. Total protein concentration of the membrane was determined by BCA method from Pierce (Rockford, Ill.).
Human CXCR3 (N-Delta 4) Scintillation Proximity Assay (SPA):
For each assay point, 2 μg of membrane was preincubated for 1 hr with 300 μg wheat germ agglutinin (WGA) coated SPA beads (Amersham, Arlington Heights, Ill.) in the binding buffer (50 mM HEPES, 1 mM CaCl2, 5 mM MgCl2, 125 mM NaCl, 0.002% NaN3, 1.0% BSA) at room temperature. The beads were spun down, washed once, resuspended in the binding buffer and transferred to a 96-well Isoplate (Wallac, Gaithersburg, Md.). 25 pM of [^125I] IP-10 with tested compounds in a series of titration were added to start the reaction. After 3 hr reaction at room temperature, the amount of [^125I] IP-10 bound to the SPA beads was determined with a Wallac 1450 Microbeta counter.

CC[C@H]1CN(c2ncc(Nc3c(NCC(=O)OC(C)(C)C)c(=O)c3=O)cc2Cl)CCN1C1CCN([C@@H](CO)c2ccc(Cl)cc2)CC1 [Compound 139]
IC50: > 0.1 µM

C[C@H]1CN(c2ncc(NC(=O)C3CCCCC3)cc2Cl)CCN1C1CCN(Cc2ccc(Cl)cc2)CC1 [Compound 194]
IC50: > 0.1 µM

CC[C@H]1CN(c2ncc(NS(C)(=O)=O)cc2Cl)CCN1C1CCN(C(=O)c2ccc(Br)s2)CC1 [Compound 69]
IC50: > 0.1 µM

CC[C@H]1CN(c2ncc(NS(C)(=O)=O)cc2Cl)CCN1C1CCN(C(=O)c2ccc(Cl)cc2)CC1 [Compound 51]
IC50: > 0.1 µM

COC(=O)c1ccc(CN2CCC(N3C[C@H](C)N(c4ncc(Nc5c(NCC(F)(F)F)c(=O)c5=O)cc4Cl)C[C@H]3C)CC2)cc1 [Compound 123]
IC50: > 0.1 µM

CC[C@H]1CN(c2ncc(NS(C)(=O)=O)cc2Cl)CCN1C1CCN(C(=O)c2ccc(Cl)nc2N)CC1 [Compound 31]
IC50: 0.025 to 0.1 µM

C[C@H]1CN(c2ncc(NS(C)(=O)=O)cc2Cl)CCN1C1CCN(C(=O)c2ccc(Cl)cc2)CC1 [Compound 66]
IC50: > 0.1 µM

CC[C@H]1CN(c2ncc(NS(C)(=O)=O)cc2Cl)CCN1C1CCN(Cc2cc3ccccc3o2)CC1 [Compound 48]
IC50: > 0.1 µM

C[C@H]1CN(c2ncc(NC(=O)NCc3ccccc3)cc2Cl)CCN1C1CCN(Cc2ccc(Cl)cc2)CC1 [Compound 198]
IC50: > 0.1 µM

CC[C@H]1CN(c2ncc(NS(C)(=O)=O)cc2Cl)CCN1C1CCN(Cc2cc(Br)cs2)CC1 [Compound 44]
IC50: > 0.1 µM

CC[C@H]1CN(c2ccc(Nc3c(NC4CC4)c(=O)c3=O)cc2Cl)CCN1C1CCN(Cc2ccc(Cl)cc2F)CC1 [Compound 82]
IC50: < 0.025 µM

CC[C@H]1CN(c2ncc(-n3cccc3)cc2Cl)CCN1C1CCN(Cc2ccc(Cl)cc2F)CC1 [Compound 222]
IC50: > 0.1 µM

C[C@@H]1CN(c2ncc(Nc3c(NCC(F)(F)F)c(=O)c3=O)cc2Cl)[C@@H](C)CN1C1CCN(Cc2cccc(Br)c2)CC1 [Compound 136]
IC50: > 0.1 µM

CC[C@H]1CN(c2ncc(NC(=N)N)cc2Cl)CCN1C1CCN(Cc2ccc(Cl)cc2F)CC1 [Compound 221]
IC50: > 0.1 µM

CC[C@H]1CN(c2ncc(NS(C)(=O)=O)cc2Cl)CCN1C1CCN(C(=O)c2ccc(OC(F)(F)F)cc2)CC1 [Compound 68]
IC50: > 0.1 µM

CC[C@H]1CN(c2ncc(NS(C)(=O)=O)cc2Cl)CCN1C1CCN(Cc2ccc(OC(F)(F)F)cc2)CC1 [Compound 10]
IC50: < 0.025 µM

CC[C@H]1CN(c2ncc(N(Cc3ccc(C#N)cc3)c3c(C(C)C)c(=O)c3=O)cc2Cl)CCN1C1CCN(Cc2ccc(C#N)cc2)CC1 [Compound 148]
IC50: > 0.1 µM

Cc1cc(Nc2c(NCC(F)(F)F)c(=O)c2=O)cnc1N1C[C@@H](C)N(C2CCN(C(=O)C3CCc4ccccc4C3)CC2)C[C@@H]1C (stereo partly shown) [Compound 130]
IC50: > 0.1 µM

CC[C@H]1CN(c2ncc(NC3=NS(=O)(=O)N=C3N)cc2Cl)CCN1C1CCN(Cc2ccc(OC(F)(F)F)cc2)CC1 [Compound 262]
IC50: 0.025 to 0.1 µM

C[C@H]1CN(c2ncc([N+](=O)[O-])cc2Cl)CCN1C1CCN(Cc2ccc(Cl)cc2F)CC1 [Compound 227]
IC50: > 0.1 µM

CC[C@H]1CN(c2ncc(Nc3c(NC4CC4)c(=O)c3=O)cc2Cl)CCN1C1CCN([C@@H](C(N)=O)c2ccc(Cl)cc2)CC1 [Compound 167]
IC50: > 0.1 µM

CC[C@H]1CN(c2ncc(NC3=NS(=O)(=O)N=C3NC)cc2Cl)CCN1C1CCN(Cc2ccc(Cl)cc2C(=N)NO)CC1 [Compound 244]
IC50: < 0.025 µM

CC[C@H]1CN(c2ncc(Nc3c(NC4CCC4)c(=O)c3=O)cc2Cl)CCN1C1CCN(Cc2ccc(Cl)cc2F)CC1 [Compound 87]
IC50: < 0.025 µM

CC[C@H]1CN(c2ncc(NC3=NS(=O)(=O)N=C3NCC3CC3)cc2Cl)CCN1C1CCN(Cc2ccc(Cl)cc2F)CC1 [Compound 246]
IC50: < 0.025 µM

CC[C@H]1CN(c2ncc(NS(C)(=O)=O)cc2Cl)CCN1C1CCN(Cc2cc(C)c(C)s2)CC1 [Compound 43]
IC50: > 0.1 µM

CC[C@H]1CN(c2ncc(Nc3c(NC4CC4)c(=O)c3=O)cc2Cl)CCN1C1CCN(Cc2ccc(Cl)cc2F)CC1 [Compound 73]
IC50: < 0.025 µM

COc1ccc(CN2CCC(N3CCN(c4ncc(NS(C)(=O)=O)cc4Cl)C[C@@H]3C)CC2)c(F)c1 [Compound 56]
IC50: > 0.1 µM

C[C@@H]1CN(c2ncc(Nc3c(NCC(F)(F)F)c(=O)c3=O)cc2Cl)[C@@H](C)CN1C1CCN(Cc2nccs2)CC1 [Compound 152]
IC50: > 0.1 µM

Cc1ccc(CN2CCC(N3CCN(c4ncc(NS(C)(=O)=O)cc4Cl)C[C@@H]3C)CC2)c(C)c1 [Compound 49]
IC50: > 0.1 µM

C[C@H]1CN(c2ncc(NC(=O)Nc3ccc(F)cc3)cc2Cl)CCN1C1CCN(Cc2ccc(Cl)cc2)CC1 [Compound 199]
IC50: > 0.1 µM

CC[C@H]1CN(c2ncc(NS(N)(=O)=O)cc2Cl)CCN1C1CCN(Cc2ccc(Cl)cc2F)CC1 [Compound 2]
IC50: < 0.025 µM

CC[C@H]1CN(c2ncc(NC(C)=O)cc2Cl)CCN1C1CCN(Cc2ccc(Cl)cc2F)CC1 [Compound 177]
IC50: < 0.025 µM

CC[C@H]1CN(c2ncc(NC3=NS(=O)(=O)N=C3NC(C)(C)C)cc2Cl)CCN1C1CCN(Cc2ccc(Cl)cc2F)CC1 [Compound 255]
IC50: 0.025 to 0.1 µM

C[C@@H]1CN(c2ncc(Nc3c(NCC(F)(F)F)c(=O)c3=O)cc2Cl)[C@@H](C)CN1C1CCN(Cc2ccccc2O)CC1 [Compound 153]
IC50: > 0.1 µM

CC[C@H]1CN(c2ncc(NS(=O)(=O)N(C)C)cc2Cl)CCN1C1CCN(Cc2ccc(Cl)cc2F)CC1 [Compound 17]
IC50: < 0.025 µM

CC[C@H]1CN(c2ncc(NC3=NS(=O)(=O)N=C3NC3CC3)cc2Cl)CCN1C1CCN(Cc2ccc(Cl)c(F)c2)CC1 [Compound 242]
IC50: < 0.025 µM

C[C@@H]1CN(c2ncc(Nc3c(NCC(F)(F)F)c(=O)c3=O)cc2Cl)[C@@H](C)CN1C1CCN(Cc2cccc(Cl)c2Cl)CC1 [Compound 158]
IC50: > 0.1 µM

CC[C@H]1CN(c2ncc(NC(=O)NC3CC3)cc2Cl)CCN1C1CCN(Cc2ccc(Cl)cc2F)CC1 [Compound 185]
IC50: < 0.025 µM

C[C@H]1CN(c2ncc(N)cc2Cl)CCN1C1CCN(Cc2ccc(Cl)cc2F)CC1 [Compound 224]
IC50: > 0.1 µM

CC[C@H]1CN(c2ncc(NS(C)(=O)=O)cc2Cl)CCN1C1CCN(Cc2ccc(F)c(F)c2)CC1 [Compound 21]
IC50: < 0.025 µM

C[C@@H]1CN(C2CCN(Cc3ccc(Cl)cc3F)CC2)[C@@H](C)CN1c1ncc(NS(C)(=O)=O)cc1Cl [Compound 50]
IC50: > 0.1 µM

CC[C@H]1CN(c2ncc([N+](=O)[O-])cc2Cl)CCN1C1CCN(Cc2ccc(Cl)cc2-c2nnc[nH]2)CC1 [Compound 215]
IC50: > 0.1 µM

CC[C@H]1CN(c2ncc(NC3=NS(=O)(=O)N=C3NC3CC3)cc2Cl)CCN1C1CCN(Cc2ccc(C#N)nc2)CC1 [Compound 266]
IC50: > 0.1 µM

C[C@@H]1CN(c2ncc(Nc3c(NCC(F)(F)F)c(=O)c3=O)cc2Cl)[C@@H](C)CN1C1CCN(C2CCCC2)CC1 [Compound 162]
IC50: > 0.1 µM

C[C@H]1CN(c2ncc(Nc3ncccn3)cc2Cl)CCN1C1CCN(Cc2ccc(Cl)cc2F)CC1 [Compound 223]
IC50: > 0.1 µM

CC[C@H]1CN(c2ncc(NC3=NS(=O)(=O)N=C3NC(C)(C)C)cc2Cl)CCN1C1CCN(Cc2ccc(Cl)cc2C#N)CC1 [Compound 267]
IC50: > 0.1 µM

CC[C@H]1CN(c2ncc(NC3=NS(=O)(=O)N=C3NCC(F)(F)F)cc2Cl)CCN1C1CCN(Cc2ccc(F)c(F)c2)CC1 [Compound 264]
IC50: > 0.1 µM

C[C@@H]1CN(c2ncc(Nc3c(NCC(F)(F)F)c(=O)c3=O)cc2Cl)[C@@H](C)CN1C1CCN(CCCc2ccccc2)CC1 [Compound 116]
IC50: > 0.1 µM

C[C@@H]1CN(c2ncc(Nc3c(NCC(F)(F)F)c(=O)c3=O)cc2Cl)[C@@H](C)CN1C1CCN(Cc2ccc(C#Cc3ccccc3)cc2)CC1 [Compound 126]
IC50: > 0.1 µM
